These results are taken from patent US20250179061A1 (SIRONAX LTD., priority 2022, published 2025).

Read-outs that look alike come from different tables or passages of the source. Some results are limits rather than exact numbers.

This assay deals with HT-29 cells. Kind of assay: HT-29 necroptosis cell viability assay (TNF-α/SMAC mimetic/zVAD-FMK, CellTiter-Glo). The note with it: Homo sapiens. The class given is cell-based. In a few lines:
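HT-29 cells (~5,000/well, overnight) in FBS-free McCoy's 5A with TNF-α 10 ng/ml, SMAC mimetic 6 μM and zVAD-FMK 10 μM plus 10-point 1:3 compound titration, 20 h at 37°C. ATP measured by CellTiter-Glo luminescence; IC50 as geometric mean of duplicates.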

The mark [1] stands for this setting: HT-29, HT-29 necroptosis cell viability assay, class symbols for IC50, read-out: Activity.
Where [2] appears, read: HT-29, HT-29 cells, necroptosis induced by TNF-α/SMAC mimetic/zVAD-FMK, CellTiter-Glo, read-out: Activity (IC50 class).
Setting [3] is: HT-29, HT-29 necroptosis cell viability, IC50 class symbols, read-out: Activity.

Take `Cc1nc(C(=O)N2CC3(COC3)C2)sc1Oc1ccc(-n2ncn(Cc3ccccc3F)c2=O)cc1F` [Example 605, 2-(3-fluoro-4-((4-methyl-2-(2-oxa-6-azaspiro[3.3]heptane-6-carbonyl)thiazol-5-yl)oxy)phenyl)-4-(2-fluorobenzyl)-2,4-dihydro-3H-1,2,4-triazol-3-one]: the IC50 under setting [1] is less than 100 nM. Regarding `Cc1nc(C(N)C(F)(F)F)sc1Oc1ccc(-n2ncn(Cc3c(F)cccc3F)c2=O)cc1F` (stereo not shown) [Example 651, 2-(4-((2-(1-amino-2,2,2-trifluoroethyl)-4-methylthiazol-5-yl)oxy)-3-fluorophenyl)-4-(2,6-difluorobenzyl)-2,4-dihydro-3H-1,2,4-triazol-3-one], under setting [2], the IC50 lay within 100 to 1000 nM.

In the case of `CC1(O)CN(c2cc(Oc3ncc(-n4ncn(Cc5c(F)cccc5F)c4=O)cc3F)ccn2)C1` [Example 249, 4-(2,6-difluorobenzyl)-2-(5-fluoro-6-((2-(3-hydroxy-3-methylazetidin-1-yl)pyridin-4-yl)oxy)pyridin-3-yl)-2,4-dihydro-3H-1,2,4-triazol-3-one], the IC50 under setting [3] lay within 100 to 1000 nM. On to `Cc1nc(N2CC(C)(C#N)C2)sc1C(=O)c1ccc(-n2ncn(Cc3c(F)cccc3F)c2=O)cc1` [Example 510, 1-(5-(4-(4-(2,6-difluorobenzyl)-5-oxo-4,5-dihydro-1H-1,2,4-triazol-1-yl)benzoyl)-4-methylthiazol-2-yl)-3-methylazetidine-3-carbonitrile], for which the IC50 under setting [1] is 100 to 1000 nM. As to `Cc1cn(Cc2ccc(-n3nc4n(c3=O)C(c3ccccc3)CC4)cc2F)c(C)n1` (stereo not shown) [Example 213, 2-(4-((2,4-dimethyl-1H-imidazol-1-yl)methyl)-3-fluorophenyl)-5-phenyl-2,5,6,7-tetrahydro-3H-pyrrolo[2,1-c][1,2,4]triazol-3-one], the IC50 under setting [1] was less than 100 nM. Regarding `Cc1nc(Br)nn1Cc1ccc(-n2ncn(Cc3c(F)cccc3F)c2=O)cc1` [Example 663, 2-(4-((3-bromo-5-methyl-1H-1,2,4-triazol-1-yl)methyl)phenyl)-4-(2,6-difluorobenzyl)-2,4-dihydro-3H-1,2,4-triazol-3-one], the IC50 under setting [2] was 100 to 1000 nM. Take `Cc1nc(N2CC(C)(NC(=O)OC(C)(C)C)C2)sc1C(C)c1ccc(-n2ncn(Cc3c(F)cccc3F)c2=O)cc1` (stereo not shown) [Example 514, tert-butyl (1-(5-(1-(4-(4-(2,6-difluorobenzyl)-5-oxo-4,5-dihydro-1H-1,2,4-triazol-1-yl)phenyl)ethyl)-4-methylthiazol-2-yl)-3-methylazetidin-3-yl)carbamate]: under setting [1], the IC50 was less than 100 nM. On to `COC(=O)c1nc(C)c(Oc2ccc(-n3nc4n(c3=O)[C@H](c3ccccc3)CC4)cc2F)s1` (single isomer, unassigned) [Example 36], for which the IC50 (HT-29 cells stimulated with TNF-α (10 ng/ml), SMAC mimetic (6 μM) and zVAD-FMK (10 μM), 20 hours, CellTiter-Glo ATP luminescence, geometric mean IC50 from 10 points, read-out: Activity) is less than 100 nM.

`COC1(C#N)CN(c2nccc(Oc3ccc(-n4ncn(Cc5c(F)cccc5F)c4=O)cc3)c2F)C1` [Example 358, 1-(4-(4-(4-(2,6-difluorobenzyl)-5-oxo-4,5-dihydro-1H-1,2,4-triazol-1-yl)phenoxy)-3-fluoropyridin-2-yl)-3-methoxyazetidine-3-carbonitrile]: the IC50 under setting [3] is less than 100 nM. Same read-out and setting: the same measure for `N#CC1CCN(c2cc(Oc3ccc(-n4ncn(Cc5c(F)cccc5F)c4=O)cc3)ccn2)CC1` [Example 255, 1-(4-(4-(4-(2,6-difluorobenzyl)-5-oxo-4,5-dihydro-1H-1,2,4-triazol-1-yl)phenoxy)pyridin-2-yl)piperidine-4-carbonitrile]: 100 to 1000 nM. Consider `O=c1n(Cc2c(F)cccc2F)cnn1-c1ccc(Oc2cc(C3=CCOCC3)ncc2F)c(F)c1` [Example 548, 4-(2,6-difluorobenzyl)-2-(4-((2-(3,6-dihydro-2H-pyran-4-yl)-5-fluoropyridin-4-yl)oxy)-3-fluorophenyl)-2,4-dihydro-3H-1,2,4-triazol-3-one], for which, under setting [1], the IC50 was less than 100 nM.

On to `CCOC(=O)c1nc(C)n(Cc2ccc(-n3ncn(Cc4c(F)cccc4F)c3=O)cc2F)c1C` [Example 215, ethyl 1-(4-(4-(2,6-difluorobenzyl)-5-oxo-4,5-dihydro-1H-1,2,4-triazol-1-yl)-2-fluorobenzyl)-2,5-dimethyl-1H-imidazole-4-carboxylate], for which the IC50 under setting [1] was less than 100 nM. Take `CCOC(=O)c1ocnc1Oc1ccc(-n2ncn(Cc3c(F)cccc3F)c2=O)cc1F` [Example 534, ethyl 4-(4-(4-(2,6-difluorobenzyl)-5-oxo-4,5-dihydro-1H-1,2,4-triazol-1-yl)-2-fluorophenoxy)oxazole-5-carboxylate]: the IC50 under setting [1] was less than 100 nM. For `Cc1nc(C2CCNC2)sc1Oc1ccc(-n2ncn(Cc3c(F)cccc3F)c2=O)cc1` (stereo not shown) [Example 549, 4-(2,6-difluorobenzyl)-2-(4-((4-methyl-2-(pyrrolidin-3-yl)thiazol-5-yl)oxy)phenyl)-2,4-dihydro-3H-1,2,4-triazol-3-one], the IC50 under setting [1] was less than 100 nM. Consider `Cc1c(Oc2ccc(-n3ncn(Cc4c(F)cccc4F)c3=O)cc2)ccnc1N1CC2(CCOCC2)C1` [Example 273, 4-(2,6-difluorobenzyl)-2-(4-((3-methyl-2-(7-oxa-2-azaspiro[3.5]nonan-2-yl)pyridin-4-yl)oxy)phenyl)-2,4-dihydro-3H-1,2,4-triazol-3-one], for which the IC50 under setting [3] lay in the range of 100 to 1000 nM. As for `CN(C)c1cc(C#N)ccc1Oc1ccc(-n2ncn(Cc3c(F)cccc3F)c2=O)cc1F` [Example 676, 4-(4-(4-(2,6-difluorobenzyl)-5-oxo-4,5-dihydro-1H-1,2,4-triazol-1-yl)-2-fluorophenoxy)-3-(dimethylamino)benzonitrile], under setting [2], the IC50 was less than 100 nM.

On to `CC1(N)CN(c2nccc(Oc3ccc(-n4ncn(Cc5c(F)cccc5F)c4=O)cc3F)c2Cl)C1` [Example 420, 2-(4-((2-(3-amino-3-methylazetidin-1-yl)-3-chloropyridin-4-yl)oxy)-3-fluorophenyl)-4-(2,6-difluorobenzyl)-2,4-dihydro-3H-1,2,4-triazol-3-one], for which the IC50 under setting [3] is less than 100 nM. With `Cc1nc(N2CC(C)(NC(=O)OC(C)(C)C)C2)sc1C(=O)c1ccc(-n2ncn(Cc3c(F)cccc3F)c2=O)cc1` [Example 508, tert-butyl (1-(5-(4-(4-(2,6-difluorobenzyl)-5-oxo-4,5-dihydro-1H-1,2,4-triazol-1-yl)benzoyl)-4-methylthiazol-2-yl)-3-methylazetidin-3-yl)carbamate], the IC50 under setting [1] is 100 to 1000 nM.

`Cc1nc(C(N)=O)sc1Oc1ncc(-n2ncn(Cc3c(F)cccc3F)c2=O)cc1Cl` [Example 647, 5-((3-chloro-5-(4-(2,6-difluorobenzy1)-5-oxo-4,5-dihydro-1H-1,2,4-triazol-1-yl)pyridin-2-yl)oxy)-4-methylthiazole-2-carboxamide]: under setting [2], the IC50 is less than 100 nM.

Take `Cc1nc(CC2CNC2)sc1Oc1ccc(-n2ncn(Cc3c(F)cccc3F)c2=O)cc1` [Example 312, 2-(4-((2-(azetidin-3-ylmethyl)-4-methylthiazol-5-yl)oxy)phenyl)-4-(2,6-difluorobenzyl)-2,4-dihydro-3H-1,2,4-triazol-3-one]: the IC50 under setting [3] is less than 100 nM.

On to `C[C@H]1[C@@H](N(C)C)CN1c1cc(Oc2ccc(-n3ncn(Cc4c(F)cccc4F)c3=O)cc2F)c(Cl)cn1` [Example 426, 2-(4-((5-chloro-2-((2S,3S)-3-(dimethylamino)-2-methylazetidin-1-yl)pyridin-4-yl)oxy)-3-fluorophenyl)-4-(2,6-difluorobenzyl)-2,4-dihydro-3H-1,2,4-triazol-3-one], for which, under setting [3], the IC50 was less than 100 nM. As to `Cc1nc(C)n(Cc2ccc(-n3ncn(Cc4c(F)cccc4F)c3=O)cc2F)c1C(N)=O` [Example 218, 1-(4-(4-(2,6-difluorobenzyl)-5-oxo-4,5-dihydro-1H-1,2,4-triazol-1-yl)-2-fluorobenzyl)-2,4-dimethyl-1H-imidazole-5-carboxamide], the IC50 under setting [1] lay within 100 to 1000 nM. Consider `CC(C)(C)OC1CN(c2nccc(Oc3ccc(-n4ncn(Cc5c(F)cccc5F)c4=O)cc3)c2F)C1` [Example 303, 2-(4-((2-(3-(tert-butoxy)azetidin-1-yl)-3-fluoropyridin-4-yl)oxy)phenyl)-4-(2,6-difluorobenzyl)-2,4-dihydro-3H-1,2,4-triazol-3-one], for which the IC50 under setting [3] is less than 100 nM. On the same count and under the same terms, as for `CCOC1CN(c2cc(Oc3ccc(-n4ncn(Cc5c(F)cccc5F)c4=O)cc3)c(Cl)cn2)C1` [Example 326, 2-(4-((5-chloro-2-(3-ethoxyazetidin-1-yl)pyridin-4-yl)oxy)phenyl)-4-(2,6-difluorobenzyl)-2,4-dihydro-3H-1,2,4-triazol-3-one], the figure is less than 100 nM; as for `CC1(N)CN(c2nccc(Oc3ccc(-n4ncn(Cc5c(F)cccc5F)c4=O)cc3F)c2F)C1` [Example 416, 2-(4-((2-(3-amino-3-methylazetidin-1-yl)-3-fluoropyridin-4-yl)oxy)-3-fluorophenyl)-4-(2,6-difluorobenzyl)-2,4-dihydro-3H-1,2,4-triazol-3-one], less than 100 nM. With `Cc1nc(C2CCCC2)sc1Oc1ccc(-n2ncn(Cc3c(F)cccc3F)c2=O)cc1` [Example 558, 2-(4-((2-cyclopentyl-4-methylthiazol-5-yl)oxy)phenyl)-4-(2,6-difluorobenzyl)-2,4-dihydro-3H-1,2,4-triazol-3-one], the IC50 under setting [1] was less than 100 nM. With `N#CC12CC(Nc3nccc(Oc4ccc(-n5ncn(Cc6c(F)cccc6F)c5=O)cc4Cl)c3F)(C1)C2` [Example 391, 3-((4-(2-chloro-4-(4-(2,6-difluorobenzyl)-5-oxo-4,5-dihydro-1H-1,2,4-triazol-1-yl)phenoxy)-3-fluoropyridin-2-yl)amino)bicyclo[1.1.1]pentane-1-carbonitrile], the IC50 under setting [3] lay within 100 to 1000 nM. The same measure, in the same setting: the same measure for `C[C@@H]1CN(c2cc(Oc3ccc(-n4ncn(Cc5c(F)cccc5F)c4=O)cc3)ccn2)C[C@H](C)O1` [Example 382, 4-(2,6-difluorobenzyl)-2-(4-((2-((2R,6S)-2,6-dimethylmorpholino)pyridin-4-yl)oxy)phenyl)-2,4-dihydro-3H-1,2,4-triazol-3-one]: 100 to 1000 nM.
